From patent publication US10830770B2, “Cell death assay” (HQ MEDICAL (NETHERLANDS) B.V., priority 2012, dated 2020)

Tested on: 4T1-luc2 mouse breast cancer cells
Assay: dry-ice dead-cells-assay (in vitro model of cryo-induced cell death)
Format: cell-based
Conditions: for binding to dead cells: dead vs living cells
Protocol: The dead cell targeting properties of seven HQ medical compounds (HQ1-7) were assessed in a newly developed in vitro assay of living and dead 4T1-luc2 mouse breast cancer cells. For this 4T1-luc2 cells were cultured to confluence in 12-well plates and a local area of cell death was induced by applying a bar of dry ice to the bottom of the culture well. Subsequently, the cells were incubated with the test compounds, washed and imaged with the Lycor Odyssey.
4T1-Luc cells were seeded onto individual wells from a 12-well cell culture plate and allowed to grow to confluence in RPMI media supplemented with 10% fetal bovine serum. 4T1-luc2 mouse breast cancer cells were used as the adherence of these cells to the bottom of the culture well remains strong after dry-ice treatment. To initiate cryo-induced cell death, media was discarded and dry-ice was applied to the bottom center of each individual well for 15 sec. Subsequently, fresh medium with different concentrations of the HQ medical compounds (HQ1-7) were added and cells were incubated at 37° C. for 15 min. After incubation, the media were discarded and the cells were washed twice with serum free medium and 0.5 ml fresh RPMI was added to each well. Cells were then visualized using a Licor Odyssey equipped with 700 and 800 nm diode laser. Luciferin ([…]) was also added to each well and fluorescence and bioluminescence images were acquired using an IVIS Spectrum (fluorescence: excitation filter: 710 nm, emission filter: 820 nm, exposure time: 90 s, bin: 8, f/stop: 2, field of view: 12.9 cm) (bioluminescence: open filter, exposure time: 30 s, bin: 8, f/stop: 1, field of view: 12.9 cm). Some culture wells were also stained for 15 min with Trypan Blue (0.2% in culture medium) to confirm cell death.
Confluent cultures of 4T1-luc2 breast cancer cells were treated for 15 sec with a focal application of dry-ice to the bottom center of a culture well and were used to examine the dead cell binding properties of the seven HQ medical NIRF compounds. First, however, in order to confirm the presence of a local area of dead cells, the dry-ice treated cultures were incubated with Trypan blue or were treated with luciferin and measured for bioluminescence.
HQ medical #1-7 were examined for their imaging potential of dead cells in the present dry-ice dead-cells-assay. The cells were incubated with the HQ medical compounds with concentrations ranging from 0.5 to 0.001 uM. HQ medical #4-7, all specifically bound to dead cells (FIGS. 5A and B). […] For HQ medical #6 and 7, a signal from the dead cell area could be detected at least 50-fold higher concentrations.

## CCN1/C(=C/C=C/C=C/C2=[N+](CCCCCC(=O)O)c3ccc(S(=O)(=O)O)cc3C2(C)C)C(C)(C)c2cc(S(=O)(=O)[O-])ccc21 [CY5]
  binding to dead cells: specific binding to dead cells

## CC1(C)C(=CC=C2CCCC(C=CC3=[N+](CCC[N+](C)(C)C)c4ccc(S(=O)(=O)O)cc4C3(C)C)=C2Oc2ccc(CCC(=O)O)cc2)N(CCC[N+](C)(C)C)c2ccc(S(=O)(=O)O)cc21 [ZW800]
  binding to dead cells: specific binding to dead cells

## CC[N+](CC)=c1ccc2c(C(C)(C)C)cc(/C=C/C=C3/N(CCCS(=O)(=O)[O-])c4ccc(S(=O)(=O)[O-])cc4C3(C)CCCC(=O)O)oc-2c1.[Na+] (stereo not drawn) [DY-681]
  binding to dead cells: specific binding to dead cells

## CC1(C)C(/C=C/C2=C(Oc3ccc(S(=O)(=O)O)cc3)C(=C/C=C3/N(CCCCS(=O)(=O)O)c4ccc(S(=O)(=O)[O-])cc4C3(C)C)/CCC2)=[N+](CCCCCC(=O)O)c2ccc(S(=O)(=O)O)cc21 [CW 800]
  binding to dead cells: specific binding to dead cells

## CCN1c2cc3c(cc2C(C)=CC1(C)C)/C(=C/C=C/C=C/C1=[N+](CCCS(=O)(=O)[O-])c2ccc(S(=O)(=O)[O-])cc2C1(C)CCCC(=O)O)C=C(c1ccccc1)O3.[Na+] (stereo not drawn) [DY-776]
  binding to dead cells: specific binding to dead cells

## CY5.5
  binding to dead cells: specific binding to dead cells

## CC1(C)C(/C=C/C=C/C=C/C=C2\N(CCCCS(=O)(=O)[O-])c3ccc4ccccc4c3C2(C)C)=[N+](CCCCS(=O)(=O)[O-])c2ccc3ccccc3c21.[Na+] [ICG]
  binding to dead cells: specific binding to dead cells

## CC[N+](CC)=c1ccc2c(/C=C/C=C/C=C3/N(CCCS(=O)(=O)[O-])c4ccc(S(=O)(=O)[O-])cc4C3(C)CCCC(=O)O)cc(C(C)(C)C)oc-2c1.[Na+] (stereo not drawn) [DY-731]
  binding to dead cells: specific binding to dead cells

## CCN1C(=CC=CC2=[N+](CCCCCC(=O)O)c3ccc(S(=O)(=O)O)cc3C2(C)C)C(C)(C)c2cc(S(=O)(=O)[O-])ccc21 [CY3]
  binding to dead cells: specific binding to dead cells

## Cc1cc(-c2ccc(/N=N/c3c(S(=O)(=O)O)cc4cc(S(=O)(=O)O)cc(N)c4c3O)c(C)c2)ccc1/N=N/c1c(S(=O)(=O)O)cc2cc(S(=O)(=O)O)cc(N)c2c1O [Trypan Blue]
Trypan Blue 0.2% in culture medium, 15 min, FIG. 4A
  uptake of Trypan Blue at site of focal dry-ice treatment compared to viable cells in the periphery: increased uptake

## CCN1c2cc3c(cc2C(C)=CC1(C)C)C(=CC=CC1=[N+](CCCS(=O)(=O)[O-])c2ccc(S(=O)(=O)[O-])cc2C1(C)CCCC(=O)O)C=C(c1ccccc1)O3.[Na+] (stereo not drawn) [DY-676]
  binding to dead cells: specific binding to dead cells

## CCN1C(=CC=CC=CC=CC2=[N+](CCCCCC(=O)O)c3ccc(S(=O)(=O)O)cc3C2(C)C)C(C)(C)c2cc(S(=O)(=O)[O-])ccc21 [CY7]
  binding to dead cells: specific binding to dead cells
